This note sets out measurements from ChEMBL document CHEMBL4130388, “Recent advances of pyrazole-containing derivatives as anti-tubercular agents” (Eur J Med Chem, 2017).

≈ marks a conversion by molar mass, not a printed value.

Holding throughout (assay type): functional
Assay [1] concerns Mycobacterium tuberculosis. Nature of the assay: Antitubercular activity against Mycobacterium tuberculosis H37Rv.
Assay [2] relates to Mycobacterium tuberculosis. Description: Antitubercular activity against Mycobacterium tuberculosis spec.210.
In assay [3] the test system is Mycobacterium tuberculosis. Description: Antitubercular activity against Mycobacterium tuberculosis spec.192.
Assay [4] concerns Mycobacterium tuberculosis. Description: Antitubercular activity against Mycobacterium tuberculosis H37Rv by Lowensteine-Jensen method.

The term MIC denotes the lowest concentration that inhibits growth of the organism. Take `O=C(Nc1ccccc1)N1CCc2c(cnn2Cc2cn(-c3ccc(I)cc3)nn2)C1`: the MIC was 24.7 to 200 µM in assay [1], 24.7 to 200 µM (≈ 13 to 105 µg/mL) in assay [2] and 24.7 to 200 µM (≈ 13 to 105 µg/mL) in assay [3].

In the case of `O=C(Nc1ccccc1)N1CCc2c(cnn2Cc2cn(-c3ccccc3Br)nn2)C1`, the MIC in assay [1] lay in the range of 24.7 to 200 µM; in assay [2], 24.7 to 200 µM (≈ 11.8 to 95.7 µg/mL); in assay [3] it was 24.7 to 200 µM (≈ 11.8 to 95.7 µg/mL).

Compound `O=C(NCCCn1ncc2ccc([N+](=O)[O-])cc21)N1C(=O)C(Cl)C1c1cccc(Br)c1` (stereo not drawn) returned an MIC in assay [4] of 6.25 to 50 µg/mL (≈ 12.3 to 98.7 µM).

As for `O=C(Nc1ccccc1)N1CCc2c(cnn2Cc2cn(-c3ccccc3)nn2)C1`, the results for the minimum inhibitory concentration (MIC) in assay [1], in assay [2] and in assay [3] were 24.7 to 200 µM, 24.7 to 200 µM (≈ 9.87 to 79.9 µg/mL) and 24.7 to 200 µM (≈ 9.87 to 79.9 µg/mL), respectively.

Take `O=C(Nc1ccccc1)N1CCc2c(cnn2Cc2cn(-c3cccc(Cl)c3)nn2)C1`: the MIC was in the range of 24.7 to 200 µM in assay [1], 24.7 to 200 µM (≈ 10.7 to 86.8 µg/mL) in assay [2] and 24.7 to 200 µM (≈ 10.7 to 86.8 µg/mL) in assay [3].

`COc1ccc(C2C(Cl)C(=O)N2C(=O)NCCCn2ncc3ccc([N+](=O)[O-])cc32)cc1` (stereo not drawn) yielded a minimal inhibitory concentration (MIC) in assay [4] of 6.25 to 50 µg/mL (≈ 13.7 to 109 µM).

In the case of `O=C(Nc1ccccc1)N1CCc2c(cnn2Cc2cn(-c3ccc(F)cc3)nn2)C1`, the MIC is 24.7 to 200 µM in assay [1], 24.7 to 200 µM (≈ 10.3 to 83.5 µg/mL) in assay [2] and 24.7 to 200 µM (≈ 10.3 to 83.5 µg/mL) in assay [3].

Turning to `O=C(Nc1ccccc1)N1CCc2c(cnn2Cc2cn(-c3ccc(Cl)cc3)nn2)C1`, the minimum inhibitory concentration (MIC) in assay [1] lay within 24.7 to 200 µM; in assay [2] it was 24.7 to 200 µM (≈ 10.7 to 86.8 µg/mL); in assay [3], 24.7 to 200 µM (≈ 10.7 to 86.8 µg/mL).

For the compound `O=C(NCCCn1ncc2ccc([N+](=O)[O-])cc21)N1C(=O)C(Cl)C1c1ccc(O)cc1` (stereo not drawn), in assay [4], the MIC lay in the range of 6.25 to 50 µg/mL (≈ 14.1 to 113 µM).

On to `O=C(Nc1ccccc1)N1CCc2c(cnn2Cc2cn(-c3ccccc3Cl)nn2)C1`, for which the MIC in assay [1] lay in the range of 24.7 to 200 µM; in assay [2], 24.7 to 200 µM (≈ 10.7 to 86.8 µg/mL); in assay [3], 24.7 to 200 µM (≈ 10.7 to 86.8 µg/mL).

Regarding `O=C(NCCCn1ncc2ccc([N+](=O)[O-])cc21)N1C(=O)C(Cl)C1c1ccc([N+](=O)[O-])cc1` (stereo not drawn), the MIC in assay [4] was 6.25 to 50 µg/mL (≈ 13.2 to 106 µM).

In the case of `O=C(Nc1ccccc1)N1CCc2c(cnn2Cc2cn(-c3ccc(Cl)cc3Cl)nn2)C1`, the results for the MIC in assay [1], in assay [2] and in assay [3] were 24.7 to 200 µM, 24.7 to 200 µM (≈ 11.6 to 93.7 µg/mL) and 24.7 to 200 µM (≈ 11.6 to 93.7 µg/mL), respectively.

In the case of `O=C(Nc1ccccc1)N1CCc2c(cnn2Cc2cn(-c3ccc(F)c(Cl)c3)nn2)C1`, the MIC in assay [1] is 24.7 to 200 µM; in assay [2], 24.7 to 200 µM (≈ 11.2 to 90.4 µg/mL); in assay [3], 24.7 to 200 µM (≈ 11.2 to 90.4 µg/mL).

Turning to `O=C(NCCCn1ncc2ccc([N+](=O)[O-])cc21)N1C(=O)C(Cl)C1c1cccc(Cl)c1` (stereo not drawn), in assay [4], the MIC lay within 6.25 to 50 µg/mL (≈ 13.5 to 108 µM).

As to `Cc1ccc(-n2cc(Cn3ncc4c3CCN(C(=O)Nc3ccccc3)C4)nn2)cc1`, the MIC in assay [1] is 24.7 to 200 µM; in assay [2], 24.7 to 200 µM (≈ 10.2 to 82.7 µg/mL); in assay [3], 24.7 to 200 µM (≈ 10.2 to 82.7 µg/mL).

On to `O=C(Nc1ccccc1)N1CCc2c(cnn2Cc2cn(-c3ccc(Br)c(OC(F)(F)F)c3)nn2)C1`, for which the values for the MIC in assay [1], in assay [2] and in assay [3] were 24.7 to 200 µM, 24.7 to 200 µM (≈ 13.9 to 112 µg/mL) and 24.7 to 200 µM (≈ 13.9 to 112 µg/mL), respectively.

In assay [4], `COc1ccccc1C1C(Cl)C(=O)N1C(=O)NCCCn1ncc2ccc([N+](=O)[O-])cc21` (stereo not drawn) came in with an MIC of 6.25 to 50 µg/mL (≈ 13.7 to 109 µM).

The compound `O=C(NCCCn1ncc2ccc([N+](=O)[O-])cc21)N1C(=O)C(Cl)C1c1ccccc1[N+](=O)[O-]` (stereo not drawn) yielded an MIC in assay [4] of 6.25 to 50 µg/mL (≈ 13.2 to 106 µM).

For `O=C(Nc1ccccc1)N1CCc2c(cnn2Cc2cn(-c3ccc([N+](=O)[O-])cc3)nn2)C1`, the MIC was 24.7 to 200 µM in assay [1], 24.7 to 200 µM (≈ 11 to 88.9 µg/mL) in assay [2] and 24.7 to 200 µM (≈ 11 to 88.9 µg/mL) in assay [3].

Consider `O=C(Nc1ccccc1)N1CCc2c(cnn2Cc2cn(-c3ccccc3I)nn2)C1`, for which the MIC is 24.7 to 200 µM in assay [1], 24.7 to 200 µM (≈ 13 to 105 µg/mL) in assay [2] and 24.7 to 200 µM (≈ 13 to 105 µg/mL) in assay [3].

As to `COc1ccc(-n2cc(Cn3ncc4c3CCN(C(=O)Nc3ccccc3)C4)nn2)cc1OC`, the MIC in assay [1] was 24.7 to 200 µM; in assay [2], 24.7 to 200 µM (≈ 11.4 to 91.9 µg/mL); in assay [3], 24.7 to 200 µM (≈ 11.4 to 91.9 µg/mL).

Compound `O=C(NCCCn1ncc2ccc([N+](=O)[O-])cc21)N1C(=O)C(Cl)C1c1ccc(Br)cc1` (stereo not drawn) registered an MIC in assay [4] of 6.25 to 50 µg/mL (≈ 12.3 to 98.7 µM).

The compound `Cc1cccc(C2C(Cl)C(=O)N2C(=O)NCCCn2ncc3ccc([N+](=O)[O-])cc32)c1` (stereo not drawn) yielded a minimal inhibitory concentration (MIC) in assay [4] of 6.25 to 50 µg/mL (≈ 14.1 to 113 µM).

As to `COC(=O)C1=C(C)NC(C)=C(C(=O)OC)C1c1cn(-c2ccccc2)nc1-c1ccc([N+](=O)[O-])cc1`, the MIC in assay [1] amounted to 0.02 µg/mL.

`COc1cccc(C2C(Cl)C(=O)N2C(=O)NCCCn2ncc3ccc([N+](=O)[O-])cc32)c1` (stereo not drawn): the MIC in assay [4] fell in the range of 6.25 to 50 µg/mL (≈ 13.7 to 109 µM).

In the case of `O=C(Nc1ccccc1)N1CCc2c(cnn2Cc2cn(-c3ccc(Br)cc3)nn2)C1`, the results for the MIC in assay [1], in assay [2] and in assay [3] were 24.7 to 200 µM, 24.7 to 200 µM (≈ 11.8 to 95.7 µg/mL) and 24.7 to 200 µM (≈ 11.8 to 95.7 µg/mL), respectively.

For `O=C(Nc1ccccc1)N1CCc2c(cnn2Cc2cn(-c3ccccc3F)nn2)C1`, the results for the MIC in assay [1], in assay [2] and in assay [3] were 24.7 to 200 µM, 24.7 to 200 µM (≈ 10.3 to 83.5 µg/mL) and 24.7 to 200 µM (≈ 10.3 to 83.5 µg/mL), respectively.

Turning to `COc1cccc(-n2cc(Cn3ncc4c3CCN(C(=O)Nc3ccccc3)C4)nn2)c1`, the MIC in assay [1] fell in the range of 24.7 to 200 µM; in assay [2], 24.7 to 200 µM (≈ 10.6 to 85.9 µg/mL); in assay [3], 24.7 to 200 µM (≈ 10.6 to 85.9 µg/mL).

Consider `O=C(NCCCn1ncc2ccc([N+](=O)[O-])cc21)N1C(=O)C(Cl)C1c1cccc(O)c1` (stereo not drawn), for which the MIC in assay [4] lay within 6.25 to 50 µg/mL (≈ 14.1 to 113 µM).

As to `O=C(NCCCn1ncc2ccc([N+](=O)[O-])cc21)N1C(=O)C(Cl)C1c1ccccc1Br` (stereo not drawn), in assay [4], the MIC fell in the range of 6.25 to 50 µg/mL (≈ 12.3 to 98.7 µM).

For `O=C(NCCCn1ncc2ccc([N+](=O)[O-])cc21)N1C(=O)C(Cl)C1c1ccc(Cl)cc1` (stereo not drawn), in assay [4], inhibition of growth (MIC) required 6.25 µg/mL (≈ 13.5 µM).

As to `O=C(Nc1ccccc1)N1CCc2c(cnn2Cc2cn(-c3cc(Cl)cc(Cl)c3)nn2)C1`, the MIC in assay [1] is 24.7 to 200 µM; in assay [2], 24.7 to 200 µM (≈ 11.6 to 93.7 µg/mL); in assay [3] it was 24.7 to 200 µM (≈ 11.6 to 93.7 µg/mL).

For the compound `Cc1ccc(C2C(Cl)C(=O)N2C(=O)NCCCn2ncc3ccc([N+](=O)[O-])cc32)cc1` (stereo not drawn), the MIC in assay [4] was 6.25 to 50 µg/mL (≈ 14.1 to 113 µM).

Turning to `O=C(Nc1ccccc1)N1CCc2c(cnn2Cc2cn(-c3ccc(OC(F)(F)F)cc3)nn2)C1`, the MIC in assay [1] is 24.7 to 200 µM; in assay [2], 24.7 to 200 µM (≈ 12 to 96.7 µg/mL); in assay [3], 24.7 to 200 µM (≈ 12 to 96.7 µg/mL).

For `O=C(Nc1ccccc1)N1CCc2c(cnn2Cc2cn(-c3ccc(Cl)c(Cl)c3)nn2)C1`, the MIC in assay [1] was 24.7 to 200 µM; in assay [2], 24.7 to 200 µM (≈ 11.6 to 93.7 µg/mL); in assay [3] it was 24.7 to 200 µM (≈ 11.6 to 93.7 µg/mL).

Turning to `O=C(NCCCn1ncc2ccc([N+](=O)[O-])cc21)N1C(=O)C(Cl)C1c1ccccc1O` (stereo not drawn), in assay [4], the MIC lay in the range of 6.25 to 50 µg/mL (≈ 14.1 to 113 µM).

`O=C(Nc1ccccc1)N1CCc2c(cnn2Cc2cn(-c3ccccc3[N+](=O)[O-])nn2)C1`: the values for the MIC in assay [1], in assay [2] and in assay [3] were 24.7 to 200 µM, 24.7 to 200 µM (≈ 11 to 88.9 µg/mL) and 24.7 to 200 µM (≈ 11 to 88.9 µg/mL), respectively.

With `O=C(NCCCn1ncc2ccc([N+](=O)[O-])cc21)N1C(=O)C(Cl)C1c1ccccc1Cl` (stereo not drawn), in assay [4], the MIC lay in the range of 6.25 to 50 µg/mL (≈ 13.5 to 108 µM).

For `CCc1ccc(-n2cc(Cn3ncc4c3CCN(C(=O)Nc3ccccc3)C4)nn2)cc1`, the MIC in assay [1] lay within 24.7 to 200 µM; in assay [2], 24.7 to 200 µM (≈ 10.6 to 85.5 µg/mL); in assay [3], 24.7 to 200 µM (≈ 10.6 to 85.5 µg/mL).

With `O=C(Nc1ccccc1)N1CCc2c(cnn2Cc2cn(-c3ccc(F)c(F)c3)nn2)C1`, the minimal inhibitory concentration (MIC) lay within 24.7 to 200 µM in assay [1], 24.7 to 200 µM (≈ 10.8 to 87.1 µg/mL) in assay [2] and 24.7 to 200 µM (≈ 10.8 to 87.1 µg/mL) in assay [3].

`Cc1ccc(-n2cc(Cn3ncc4c3CCN(C(=O)Nc3ccccc3)C4)nn2)cc1C`: the values for the MIC in assay [1], in assay [2] and in assay [3] were 24.7 to 200 µM, 24.7 to 200 µM (≈ 10.6 to 85.5 µg/mL) and 24.7 to 200 µM (≈ 10.6 to 85.5 µg/mL), respectively.

Take `Cc1ccccc1C1C(Cl)C(=O)N1C(=O)NCCCn1ncc2ccc([N+](=O)[O-])cc21` (stereo not drawn): the MIC in assay [4] lay in the range of 6.25 to 50 µg/mL (≈ 14.1 to 113 µM).

In the case of `CCOC(=O)C1=C(C)NC(C)=C(C(=O)OCC)C1c1cn(-c2ccccc2)nc1-c1ccc(F)cc1`, the MIC in assay [1] was found to be 0.02 µg/mL.

`O=C(NCCCn1ncc2ccc([N+](=O)[O-])cc21)N1C(=O)C(Cl)C1c1cccc([N+](=O)[O-])c1` (stereo not drawn) displayed a minimal inhibitory concentration (MIC) in assay [4] of 6.25 to 50 µg/mL (≈ 13.2 to 106 µM).

`CCOC(=O)C1=C(C)NC(C)=C(C(=O)OCC)C1c1cn(-c2ccccc2)nc1-c1ccc(Br)cc1` showed an MIC in assay [1] of 0.02 µg/mL.
